The record followed here is PMC5794461, “Kinetic analysis of the isoleucyl‐tRNA synthetase mechanism: the next reaction cycle can start before the previous one ends” (FEBS Open Bio, 2017).

This experiment has as its target T1, isoleucyl-tRNA synthetase (IleRS) (Escherichia coli, UniProt P00956).
T1 construct: gene ileS; full-length native enzyme purified from E. coli B; one-subunit enzyme
As to the kind of experiment: global best fit of steady-state ATP-PPi exchange and tRNA aminoacylation rates. The format is biochemical. To be noted: AMP·E (segment 1), competitive with MgATP; pH 7.4, 30 °C, Mg-acetate, 50 mM K-acetate, no chloride; unreliable: fitted range open above (360 <). The text has this:
global best fit of steady-state ATP-PPi exchange and tRNA aminoacylation rates on isoleucyl-tRNA synthetase (IleRS)

T1 sequence (P00956 2-938): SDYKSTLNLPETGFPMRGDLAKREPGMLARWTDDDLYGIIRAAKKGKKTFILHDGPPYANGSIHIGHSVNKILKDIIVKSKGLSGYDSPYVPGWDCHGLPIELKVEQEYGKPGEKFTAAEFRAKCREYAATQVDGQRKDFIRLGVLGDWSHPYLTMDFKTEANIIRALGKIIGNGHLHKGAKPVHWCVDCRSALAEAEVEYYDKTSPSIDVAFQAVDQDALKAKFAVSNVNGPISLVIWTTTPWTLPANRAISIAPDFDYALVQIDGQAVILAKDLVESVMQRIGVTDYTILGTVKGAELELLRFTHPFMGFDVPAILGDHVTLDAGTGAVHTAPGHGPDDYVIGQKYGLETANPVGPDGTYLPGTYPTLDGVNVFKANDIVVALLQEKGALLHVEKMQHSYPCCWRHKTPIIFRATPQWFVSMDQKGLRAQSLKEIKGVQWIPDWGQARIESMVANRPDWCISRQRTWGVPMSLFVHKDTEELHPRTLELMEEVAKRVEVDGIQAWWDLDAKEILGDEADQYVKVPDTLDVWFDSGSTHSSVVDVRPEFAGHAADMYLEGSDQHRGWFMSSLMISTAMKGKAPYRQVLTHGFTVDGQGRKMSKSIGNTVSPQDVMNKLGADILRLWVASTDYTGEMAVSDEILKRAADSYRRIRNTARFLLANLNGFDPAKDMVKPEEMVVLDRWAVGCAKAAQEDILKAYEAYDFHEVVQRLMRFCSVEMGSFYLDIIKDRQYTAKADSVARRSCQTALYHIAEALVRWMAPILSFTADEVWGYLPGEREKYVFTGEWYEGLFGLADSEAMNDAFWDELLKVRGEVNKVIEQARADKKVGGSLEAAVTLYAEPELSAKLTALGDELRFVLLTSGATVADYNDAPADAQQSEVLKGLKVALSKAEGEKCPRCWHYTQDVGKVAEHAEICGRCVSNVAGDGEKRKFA

In turn, `Nc1ncnc2c1ncn2[C@@H]1O[C@H](COP(=O)(O)O)[C@@H](O)[C@H]1O` [AMP] yielded a Value of 705 µM.
